pIC50: −log10 of the molar value. Where “and” joins values, the source holds several entries; their conditions need not be identical. Equal values may be shown once. Where a SMILES comes first, the peptide text is derived from it. The star is where a group is joined. Cbz = O=C(OCc1ccccc1)*
What was measured:
D-336MG = assay: cells; format: functional, cell-based, Homo sapiens
Description: SANGER: Inhibition of human D-336MG cell growth in a cell viability assay.

DMS-153 = assay: cells; format: functional, cell-based, Homo sapiens
Description: SANGER: Inhibition of human DMS-153 cell growth in a cell viability assay.

EW-12 = assay: SANGER: Inhibition of human EW-12 cell growth in a cell viability assay.; format: functional, cell-based
GDM-1 = assay: cells; format: functional, cell-based, Homo sapiens;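 note: cell viability readout used to measure growth inhibition of human GDM-1 cells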
Description: SANGER: Inhibition of human GDM-1 cell growth in a cell viability assay.

IM-9 = assay: SANGER: Inhibition of human IM-9 cell growth in a cell viability assay.; format: functional, cell-based
MHH-CALL-2 = assay: cells; format: functional, cell-based, Homo sapiens;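 note: growth inhibition of the cell line, read out in a cell viability assay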
Description: SANGER: Inhibition of human MHH-CALL-2 cell growth in a cell viability assay.

MOLT-13 = assay: cells; format: functional, cell-based; settings: Homo sapiens;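 note: IC50 for suppression of MOLT-13 cell growth, read out with a cell viability assay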
Description: SANGER: Inhibition of human MOLT-13 cell growth in a cell viability assay.

NCI-H748 = assay: cells; format: functional, cell-based, Homo sapiens;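 note: growth inhibition of NCI-H748 cells, measured by a cell viability assay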
Description: SANGER: Inhibition of human NCI-H748 cell growth in a cell viability assay.

OPM-2 = assay: cells; format: functional, cell-based, Homo sapiens;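 note: growth of OPM-2 cells measured with a viability assay, IC50 for suppression of proliferation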
Description: SANGER: Inhibition of human OPM-2 cell growth in a cell viability assay.

RPMI 8402 = assay: SANGER: Inhibition of human RPMI-8402 cell growth in a cell viability assay.; format: functional, cell-based
SKM-1 = assay: SANGER: Inhibition of human SKM-1 cell growth in a cell viability assay.; format: functional, cell-based
SU-DHL-1 = assay: SANGER: Inhibition of human SU-DHL-1 cell growth in a cell viability assay.; format: functional, cell-based
UACC-812 = assay: cells; format: functional, cell-based; settings: Homo sapiens
Description: SANGER: Inhibition of human UACC-812 cell growth in a cell viability assay.

D-392MG = assay: cells; format: functional, cell-based; settings: Homo sapiens
KP-N-YN = assay: cells; format: functional, cell-based; settings: Homo sapiens;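 note: growth inhibition of KP-N-YN cells, read out with a cell viability assay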
Description: SANGER: Inhibition of human KP-N-YN cell growth in a cell viability assay.

COLO-792 = assay: cells; format: functional, cell-based; settings: Homo sapiens
Description: SANGER: Inhibition of human COLO-792 cell growth in a cell viability assay.

D-423MG = assay: cells; format: functional, cell-based; settings: Homo sapiens
Description: SANGER: Inhibition of human D-423MG cell growth in a cell viability assay.

D-566MG = assay: cells; format: functional, cell-based; settings: Homo sapiens
DoTc2-4510 = assay: cells; format: functional, cell-based; settings: Homo sapiens
EGI-1 = assay: cells; format: functional, cell-based; settings: Homo sapiens;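 note: cell viability readout used to gauge growth inhibition of EGI-1 cells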
Description: SANGER: Inhibition of human EGI-1 cell growth in a cell viability assay.

H-EMC-SS = assay: cells; format: functional, cell-based; settings: Homo sapiens
Description: SANGER: Inhibition of human H-EMC-SS cell growth in a cell viability assay.

HCC1419 = assay: cells; format: functional, cell-based; settings: Homo sapiens;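 note: growth inhibition of human HCC1419 cells, read out as cell viability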
Description: SANGER: Inhibition of human HCC1419 cell growth in a cell viability assay.

HT-1080 = assay: cells; format: functional, cell-based; settings: Homo sapiens
Description: SANGER: Inhibition of human HT-1080 cell growth in a cell viability assay.

HuO-3N1 = assay: cells; format: functional, cell-based; settings: Homo sapiens;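 note: cell viability readout used to measure how strongly compounds suppress proliferation of human HuO-3N1 cells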
Description: SANGER: Inhibition of human HuO-3N1 cell growth in a cell viability assay.

IGR-1 = assay: cells; format: functional, cell-based; settings: Homo sapiens;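 note: growth inhibition of human IGR-1 cells, read out with a cell viability assay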
Description: SANGER: Inhibition of human IGR-1 cell growth in a cell viability assay.

KNS-62 = assay: cells; format: functional, cell-based; settings: Homo sapiens;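 note: inhibition of cell growth, read out with a cell viability assay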
Description: SANGER: Inhibition of human KNS-62 cell growth in a cell viability assay.

MHH-ES-1 = assay: cells; format: functional, cell-based; settings: Homo sapiens
Description: SANGER: Inhibition of human MHH-ES-1 cell growth in a cell viability assay.

NCI-H2029 = assay: cells; format: functional, cell-based; settings: Homo sapiens;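 note: Read-out is a viability assay on the cultured cells, and IC50 is the concentration that suppresses cell growth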
Description: SANGER: Inhibition of human NCI-H2029 cell growth in a cell viability assay.

NCI-H2405 = assay: cells; format: functional, cell-based; settings: Homo sapiens;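 note: growth inhibition of the human cell line, read out with a cell viability assay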
Description: SANGER: Inhibition of human NCI-H2405 cell growth in a cell viability assay.

NCI-H358 = assay: cells; format: functional, cell-based; settings: Homo sapiens;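 note: growth inhibition of NCI-H358 human cells, read out with a cell viability assay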
Description: SANGER: Inhibition of human NCI-H358 cell growth in a cell viability assay.

NCI-H596 = assay: cells; format: functional, cell-based; settings: Homo sapiens;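 note: growth inhibition of NCI-H596 cells, read out with a cell viability assay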
Description: SANGER: Inhibition of human NCI-H596 cell growth in a cell viability assay.

NCI-H727 = assay: cells; format: functional, cell-based; settings: Homo sapiens;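 note: growth inhibition of human NCI-H727 cells, read out with a cell viability assay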
Description: SANGER: Inhibition of human NCI-H727 cell growth in a cell viability assay.

OC-314 = assay: cells; format: functional, cell-based; settings: Homo sapiens
Description: SANGER: Inhibition of human OC-314 cell growth in a cell viability assay.

OVCAR-8 = assay: cells; format: functional, cell-based; settings: Homo sapiens;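 note: growth inhibition of human OVCAR-8 cells, read out by a cell viability assay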
Description: SANGER: Inhibition of human OVCAR-8 cell growth in a cell viability assay.

RPMI-7951 = assay: cells; format: functional, cell-based; settings: Homo sapiens
Description: SANGER: Inhibition of human RPMI-7951 cell growth in a cell viability assay.

RVH-421 = assay: cells; format: functional, cell-based; settings: Homo sapiens
Description: SANGER: Inhibition of human RVH-421 cell growth in a cell viability assay.

SCC-25 = assay: cells; format: functional, cell-based; settings: Homo sapiens;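 note: growth inhibition of SCC-25 cells, measured with a cell viability assay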
Description: SANGER: Inhibition of human SCC-25 cell growth in a cell viability assay.

SNU-449 = assay: cells; format: functional, cell-based; settings: Homo sapiens
Description: SANGER: Inhibition of human SNU-449 cell growth in a cell viability assay.

8505C = assay: cells; format: functional, cell-based; settings: Homo sapiens
Description: SANGER: Inhibition of human 8505C cell growth in a cell viability assay.

A673 = assay: cells; format: functional, cell-based; settings: Homo sapiens;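 note: growth inhibition of human A673 cells, read out through a cell viability assay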
Description: SANGER: Inhibition of human A673 cell growth in a cell viability assay.

BHT-101 = assay: cells; format: functional, cell-based; settings: Homo sapiens
Description: SANGER: Inhibition of human BHT-101 cell growth in a cell viability assay.

BPH-1 = assay: cells; format: functional, cell-based; settings: Homo sapiens;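 note: cell viability assay measuring growth inhibition of human BPH-1 cells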
Description: SANGER: Inhibition of human BPH-1 cell growth in a cell viability assay.

BT-549 = assay: cells; format: functional, cell-based; settings: Homo sapiens
Description: SANGER: Inhibition of human BT-549 cell growth in a cell viability assay.

TI-73 = assay: cells; format: functional, cell-based; settings: Homo sapiens;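 note: cell viability assay measuring how much compounds suppress growth of the cultured cell line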
Description: SANGER: Inhibition of human TI-73 cell growth in a cell viability assay.

U-251 = assay: cells; format: functional, cell-based; settings: Homo sapiens;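 note: growth inhibition of human U-251 cells, read out through a cell viability assay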
Description: SANGER: Inhibition of human U251 cell growth in a cell viability assay.

ZR-75-30 = assay: cells; format: functional, cell-based; settings: Homo sapiens;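 note: growth inhibition of ZR-75-30 cells, measured with a cell viability readout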
Description: SANGER: Inhibition of human ZR-75-30 cell growth in a cell viability assay.

CFPAC-1 = assay: cells; format: functional, cell-based; settings: Homo sapiens;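 note: cell viability readout used to gauge suppression of CFPAC-1 cell proliferation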
Description: SANGER: Inhibition of human CFPAC-1 cell growth in a cell viability assay.

COLO-679 = assay: cells; format: functional, cell-based; settings: Homo sapiens
Description: SANGER: Inhibition of human COLO-679 cell growth in a cell viability assay.

Cc1ccc(NC(=O)c2ccc(CN3CCN(C)CC3)cc2)cc1Nc1nccc(-c2cccnc2)n1 [IMATINIB]
pIC50 (D-336MG; Homo sapiens, D-336MG): < 5.70
pIC50 (DMS-153; Homo sapiens, DMS-153): < 5.70
pIC50 (EW-12; Homo sapiens, EW-12): < 5.70
pIC50 (GDM-1; Homo sapiens, GDM-1): < 5.70
pIC50 (IM-9; Homo sapiens, IM-9): < 5.70
pIC50 (MHH-CALL-2; Homo sapiens, MHH-CALL-2): < 5.70
pIC50 (MOLT-13): < 5.70
pIC50 (NCI-H748; Homo sapiens, NCI-H748): < 5.70
pIC50 (OPM-2; Homo sapiens, OPM-2): < 5.70
pIC50 (RPMI 8402; Homo sapiens, RPMI 8402): < 5.70
pIC50 (SKM-1; Homo sapiens, SKM-1): < 5.70
pIC50 (SU-DHL-1; Homo sapiens, SU-DHL-1): < 5.70
pIC50 (UACC-812): < 5.70

CC(C)C[C@@H](C=O)NC(=O)[C@H](CC(C)C)NC(=O)[C@H](CC(C)C)NC(=O)OCc1ccccc1 [MG-132] (Cbz-Leu-Leu-Leu-aldehyde)
pIC50 (D-336MG; d-336mg): < 6.00
pIC50 (D-392MG): 6.72
pIC50 (DMS-153; Homo sapiens, DMS-153): < 6.00
pIC50 (DMS-153; dms-153): < 6.00
pIC50 (EW-12; ew-12): < 6.00
pIC50 (GDM-1; gdm-1, read-out: IC50): 6.45 and < 6.00
pIC50 (IM-9; im-9): < 6.00
pIC50 (KP-N-YN): < 6.00
pIC50 (MHH-CALL-2; mhh-call-2): < 6.00
pIC50 (NCI-H748; Homo sapiens, NCI-H748): < 6.00
pIC50 (NCI-H748; nci-h748): < 6.00
pIC50 (OPM-2; opm-2): 6.98 and 6.12
pIC50 (RPMI 8402; rpmi-8402): < 6.00
pIC50 (SKM-1; skm-1): < 6.00
pIC50 (SU-DHL-1; su-dhl-1): < 6.00
pIC50 (UACC-812): < 6.00

CS(=O)(=O)N1CCN(Cc2cc3nc(-c4cccc5[nH]ncc45)nc(N4CCOCC4)c3s2)CC1 [PICTILISIB]
pIC50 (COLO-792): < 5.40
pIC50 (D-392MG): < 5.40
pIC50 (D-423MG): 5.96
pIC50 (D-566MG): 5.79
pIC50 (DoTc2-4510): < 5.40
pIC50 (EGI-1): 5.73
pIC50 (H-EMC-SS): < 5.40
pIC50 (HCC1419): 5.66
pIC50 (HT-1080): 5.51
pIC50 (HuO-3N1): 6.19
pIC50 (IGR-1): < 5.40
pIC50 (KNS-62): 5.41
pIC50 (KP-N-YN): < 5.40
pIC50 (MHH-ES-1): < 5.40
pIC50 (NCI-H2029): < 5.40
pIC50 (NCI-H2405): < 5.40
pIC50 (NCI-H358): < 5.40
pIC50 (NCI-H596): < 5.40
pIC50 (NCI-H727): < 5.40
pIC50 (OC-314): < 5.40
pIC50 (OVCAR-8): < 5.40
pIC50 (RPMI-7951): < 5.40
pIC50 (RVH-421): < 5.40
pIC50 (SCC-25): 6.04
pIC50 (SNU-449): 5.59
pIC50 (8505C): < 5.40
pIC50 (A673): < 5.40
pIC50 (BHT-101): 6.26
pIC50 (BPH-1): 6.50
pIC50 (BT-549): < 5.40
pIC50 (TI-73): < 5.40
pIC50 (U-251): < 5.40
pIC50 (ZR-75-30): < 5.40
pIC50 (CFPAC-1): < 5.40
pIC50 (COLO-679): < 5.40

COc1cc(N2CCC(N3CCN(C)CC3)CC2)ccc1Nc1ncc(Cl)c(Nc2ccccc2S(=O)(=O)C(C)C)n1 [TAE-684]
pIC50 (D-336MG; Homo sapiens, D-336MG): 6.18
pIC50 (DMS-153; Homo sapiens, DMS-153): < 5.70
pIC50 (EW-12; Homo sapiens, EW-12): < 5.70
pIC50 (GDM-1; Homo sapiens, GDM-1, read-out: IC50): 6.33
pIC50 (IM-9; Homo sapiens, IM-9): < 5.70
pIC50 (MHH-CALL-2; Homo sapiens, MHH-CALL-2): 7.53
pIC50 (NCI-H748; Homo sapiens, NCI-H748): < 5.70
pIC50 (OPM-2; Homo sapiens, OPM-2): 6.64
pIC50 (RPMI 8402; Homo sapiens, RPMI 8402): < 5.70
pIC50 (SKM-1; Homo sapiens, SKM-1): < 5.70
pIC50 (SU-DHL-1; Homo sapiens, SU-DHL-1): 7.31
pIC50 (UACC-812): < 5.70
